Results reported in patent US7388004B2, “Acid-group-substituted diphenylazetidinones, process for their preparation, medicaments comprising these compounds, and their use” (Sanofi-Aventis Deutschland GmbH, priority 2002, dated 2008).

The molecules below were run on cholesterol absorption (uptake of 14C-cholesterol by the liver) (assay: Cholesterol absorption test: uptake of 14C-cholesterol by the liver after peroral test meal). Conditions: dose at which uptake of 14C-cholesterol by the liver was halved (50%) vs control group, mouse.
Type: in vivo, NMRI mice
Text: Effect of the compounds of the invention on cholesterol absorption and 3H-taurocholic acid excretion using fecal excrement of mice, rats or hamsters
NMRI mice, Wistar rats, or Golden Syrian hamsters (in groups of n=4-6) were kept in metabolic cages, where they were fed with a standard diet (Altromin, Lage (Lippe)). The afternoon prior to the administration of the radioactive tracers (14C-cholesterol), the feed was removed and the animals were adapted to grates.
Additionally, the animals were labeled s.c. with 3H-TCA (taurocholic acid) (for example 1 μCi/mouse up to 5 μCi/rat) 24 hours prior to the peroral administration of the test meal (14C-cholesterol in Intralipid® 20, Pharmacia-Upjohn).
Cholesterol absorption test: 0.25 ml/mouse Intralipid®D 20 (Pharmacia-Upjohn) ((spiked with 0.25 μCi of 14C-cholesterol in 0.1 mg of cholesterol) was administered perorally by gavage.
Test substances were prepared separately in 0.5% methylcellulose (Sigma)/5% Solutol (BASF, Ludwigshafen) or a suitable vehicle.
The administration volume of the test substance was 0.5 ml/mouse. The test substance was administered immediately prior to the test meal (Intralipid labeled with 14C-cholesterol) (cholesterol absorption test).
The feces were collected over a period of 24 h. Fecal elimination of 14C-cholesterol and 3H-taurocholic acid (TCA) was determined after 24 hours.
The livers were removed and homogenized, and aliquots were incinerated in an oximate (Model 307, Packard) to determine the amount of 14C-cholesterol that had been taken up/absorbed.
The amount of-14C-cholesterol taken up by the liver was based on the administered dose. The ED50 values were interpolated from a dose-effect curve as the dose at which the uptake of 14C-cholesterol by the liver was halved (50%), based on a control group.

| SMILES | ED50 (liver) |
| --- | --- |
| COc1ccc(C2C(CCC(O)c3ccc(F)cc3)C(=O)N2c2ccc(CNC(=O)CCCCCCCCCCC(=O)O)cc2)cc1 (stereo not shown) [XIII, 11-{4-[3-[3-(4-Fluorophenyl)-3-hydroxypropyl]-2-(4-methoxyphenyl)-4-oxoazetidin-1-yl]benzylcarbamoyl}undecanoic acid] | <0.1 mg/mouse |
| O=C1C(CCC(O)c2ccc(F)cc2)C(c2ccc(OCCCCNCCCCCCOP(=O)(O)O)cc2)N1c1ccc(F)cc1 (stereo not shown) [IV, Phosphoric acid mono{6-[4-(4-{1-(4-fluorophenyl)-3-[3-(4-fluorofluorophenyl)-3-hydroxypropyl]-4-oxoazetidin-2-yl}phenoxy)butylamino]hexyl}ester] | 0.3 mg/mouse |
| COc1ccc(C2C(CCC(O)c3ccc(F)cc3)C(=O)N2c2ccc(CNCCCCS(=O)(=O)O)cc2)cc1 (stereo not shown) [I, 4-{4-[3-[3-(4-Fluorophenyl)-3-hydroxypropyl]-2-(4-methoxyphenyl)-4-oxoazetidin-1-yl]benzylamino}butane-1-sulfonic acid] | 1.0 mg/mouse |
| COc1ccc(C2C(CCC(O)c3ccc(F)cc3)C(=O)N2c2ccc(CNC(=O)CS(=O)(=O)O)cc2)cc1 (stereo not shown) [IX, {4-[3-[3-(4-Fluorophenyl)-3-hydroxypropyl]-2-(4-methoxyphenyl)-4-oxoazetidin-1-yl]benzylcarbamoyl}methanesulfonic acid] | <1.0 mg/mouse |
| O=C(CS(=O)(=O)O)NCc1ccc(C2C(CCC(O)c3ccc(F)cc3)C(=O)N2c2ccc(F)cc2)cc1 (stereo not shown) [VIII, (4-{1-(4-Fluorophenyl)-3-[3-(4-fluorophenyl)-3-hydroxypropyl]-4-oxoazetidin-2-yl}benzylcarbamoyl)methanesulfonic acid] | 0.3 mg/mouse |
| O=C(O)CCC(=O)NCc1ccc(C2C(CCC(O)c3ccc(F)cc3)C(=O)N2c2ccc(F)cc2)cc1 (stereo not shown) [X, N-(4-{1-(4-Fluorophenyl)-3-[3-(4-fluorophenyl)-3-hydroxypropyl]-4-oxoazetidin-2-yl}benzyl)succinaminic acid] | <1.0 mg/mouse |
| COc1ccc(C2C(CCC(O)c3ccc(F)cc3)C(=O)N2c2ccc(OCCCCN(C)CCS(=O)(=O)O)cc2)cc1 (stereo not shown) [II, 2-[(4-{4-[3-[3-(4-Fluorophenyl)-3-hydroxypropyl]-2-(4-methoxyphenyl)-4-oxoazetidin-1-yl]phenoxy}butyl)methylamino]ethylsulfonic acid] | >0.1 mg/mouse |
